Test results taken from patent publication US12167744B2, “Nicotine liquid formulations for aerosol devices and methods thereof” (JUUL Labs, Inc., priority 2013, dated 2024).

Key:
[1] = thermal decomposition of the acid; cited from earlier work
[2] = nicotine:tartaric acid 1:2; in PG or VG or any mixture of PG and VG at ambient conditions
Source text: In some embodiments, acids that have poor solubility in the composition constituents are inappropriate for use in certain embodiments of the compositions herein. […] As used herein, weight percentage (w/w) refers to the weight of the individual component over the weight of the total formulation.

SMILES	decomposition temperature [1]	concentration at which no solution is produced [2]
O=C(O)CC(O)C(=O)O (stereo not drawn) [malic acid]	150 °C	–
CN1CCCC1c1cccnc1.O=C(O)C(O)C(O)C(=O)O (stereo not drawn) [nicotine bitartrate]	–	< 0.5 % (w/w) nicotine
O=C(O)CC(O)(CC(=O)O)C(=O)O [citric acid]	175 °C	–
